Data: patent publication US12679837B2, “Aminopyrimidine compound as CDK2/4/6 triple inhibitor” (CISEN PHARMACEUTICAL CO., LTD, priority 2019, dated 2026)

Tests used:
MDA-MB-468 cells = assay: MDA-MB-468 cell activity test (CellTiter-Glo); assay type: cell-based; conditions: Homo sapiens, 168 h; MDA-MB-468 cells (Rb-negative), 7 days; read-out: Antiproliferative activity (IC50) MDA-MB-468
Description: (§1) Experimental materials: L15 medium, fetal bovine serum, penicillin/streptomycin antibiotics were purchased from Vicente. CellTiter-Glo (chemiluminescence detection reagent for cell viability) reagent was purchased from Promega. The MDA-MB-468 cell line was purchased from Cobioer Biosciences Co., Ltd. Nivo Multilabel Analyzer (PerkinElmer).
(§2) Experimental method: MDA-MB-468 cells were seeded in a white 96-well plate, 80 μL of cell suspension per well, which contained 1000 MDA-MB-468 cells. The cell plate was incubated overnight in a carbon dioxide incubator. The compounds to be tested were diluted 5-fold to the 9th concentration with a row gun, that is, from 10 mM to 25.6 nM, and a double-replicate well experiment was set up. 78 μL of medium was added to the middle plate, and then transferred 2 μL per well of the gradient diluted compound to the middle plate according to the corresponding position, mixed well and transferred 20 μL per well to the cell plate. The concentration of compound transferred to the cell plate ranged from 50 μM to 0.128 nM. The cell plate was incubated in a carbon dioxide incubator for 7 days. Another cell plate was prepared, and the signal value was read as the maximum value (Max value in the equation below) on the day of drug addition to participate in data analysis. 25 μL of chemiluminescence detection reagent for cell viability was added to each well of the cell plate, and incubated at room temperature for 10 minutes to stabilize the luminescence signal. A multi-label analyzer was used for reading.
(§3) Data analysis: Using the equation (Sample−Min)/(Max−Min)×100% to convert the original data into inhibition rate, the IC50 value can be obtained by curve fitting with four parameters (obtained by the mode of log(inhibitor) vs. response—Variable slope in GraphPad Prism).

HCT116 cells = assay: HCT116 cell activity test (CellTiter-Glo); assay type: cell-based; conditions: Homo sapiens, HCT-116, 96 h, 4 days, read-out: Antiproliferative activity (IC50) HCT 116
Description: as §1, with “McCoy' 5a” for “L15”, “serum, and” for “serum,”, “HCT116” for “MDA-MB-468”
as §2, with “method: HCT116” for “method: MDA-MB-468”, “1000 HCT116” for “1000 MDA-MB-468”, “from 2” for “from 10”, “to 5.12” for “to 25.6”, “plate. […]” for “plate. The concentration of compound transferred to the cell plate ranged from 50 μM to 0.128 nM. The cell plate was incubated in a carbon dioxide incubator for 7 days.”, “reading. […]” for “reading.”

CDK9/CyclinT1 = biological target: T1, CDK9/CyclinT1 (Homo sapiens, UniProt P50750); assay: CDK9/CyclinT1 kinase activity assay (ADP-Glo); assay type: biochemical; conditions: 100 μM ATP, 25° C., 60 minutes; read-out: Enzyme activity data (IC50) CDK9/CyclinT1
T1 construct: purchased Carna
Description: Experimental materials: CDK9/CyclinT1 kinase was purchased from Carna, the ADP-Glo detection kit was purchased from Promega, the PKDTide substrate and kinase reaction buffer were purchased from Signalchem. Nivo Multilabel Analyzer (PerkinElmer).
Experimental method: Kinase buffer dilution enzyme in the kit, substrate, adenosine triphosphate and inhibitor were used. […] The reaction system was placed at 25° C. and reacted for 60 minutes. After the reaction was complete, 5 μL of ADP-Glo reagent was added to each well, and the reaction was continued at 25° C. for 40 minutes. At the end of the reaction, 10 μL of kinase detection reagent was added to each well. After the reaction was continued at 25° C. for 30 minutes, the chemiluminescence was read by a multi-label analyzer with an integration time of 0.5 seconds.
(§4) Table 1 provides the enzymatic inhibitory activities of the compounds of the present invention on CDK2/CyclinA2, CDK2/CyclinE1, CDK4/CyclinD1, CDK6/CyclinD1, CDK9/CyclinT1.

HCC1806 cells = assay: HCC1806 cell activity test (CyQUANT); assay type: cell-based; conditions: Homo sapiens, 168 h, 7 days, read-out: Antiproliferative activity (IC50) HCC1806
Description: Experimental materials: RPMI-1640 medium, fetal bovine serum, penicillin/streptomycin antibiotics were purchased from Vicente. CyQUANT Cell Proliferation Assays (Cell proliferation assay kit) reagents were purchased from ThermoFisher. The HCC1806 cell line was purchased from Cobioer Biosciences Co., Ltd. Nivo Multilabel Analyzer (PerkinElmer).
Experimental method: HCC1806 cells were seeded in a white 96-well plate, 80 μL of cell suspension per well, which contained 3000 HCC1806 cells. The cell plate was incubated overnight in a carbon dioxide incubator. The compounds to be tested were diluted 5-fold to the 9th concentration with a row gun, that is, from 10 mM to 25.6 nM, and a double-replicate well experiment was set up. 78 μL of medium was added to the middle plate, and then transferred 2 μL per well of the gradient diluted compound to the middle plate according to the corresponding position, mixed well and transferred 20 μL per well to the cell plate. […] After reaching the incubation time, the cell supernatant was removed, and the cell plate was placed in a −80° C. refrigerator for 1 hour, after which 100 μL of Cyquant reagent was added to each well, and a multi-label analyzer was used for reading. Another cell plate was prepared, and the signal value was read as the maximum value (Max value in the equation below) on the day of drug addition to participate in data analysis. […]

CDK2/CyclinA2 = biological target: T2, CDK2/CyclinA2 (Homo sapiens, UniProt P24941); assay: CDK2/CyclinA2 kinase activity test (ADP-Glo); assay type: biochemical; conditions: 50 μM ATP, 25° C., 60 minutes; read-out: Enzyme activity data (IC50) CDK2/cyclinA
T2 construct: purchased Promega
Description: Experimental materials: CDK2/CyclinA2 kinase detection kit was purchased from Promega. Nivo Multilabel Analyzer (PerkinElmer).
Experimental method: Kinase buffer dilution enzyme in the kit, substrate, adenosine triphosphate and inhibitor were used. The compounds to be tested were diluted 5-fold to the 8th concentration with a row gun, that is, from 50 μM to 0.65 nM, the concentration of DMSO was 5%, and a double-replicate well experiment was set up. 1 μL of each concentration gradient of inhibitor, 2 μL of CDK2/CyclinA2 enzyme (1.6 ng), and 2 μL of a mixture of substrate and ATP (50 μM of adenosine triphosphate, 0.1 μg/μL of substrate) were added to the microplate, and at this time, the final concentration gradient of compound was diluted from 10 μM to 0.13 nM. The reaction system was placed at 25° C. and reacted for 60 minutes. After the reaction was complete, 5 μL of ADP-Glo reagent was added to each well, and the reaction was continued at 25° C. for 40 minutes. At the end of the reaction, 10 μL of kinase detection reagent was added to each well. After the reaction was continued at 25° C. for 30 minutes, the chemiluminescence was read by a multi-label analyzer with an integration time of 0.5 seconds.
as §3, with “Using” for “Data analysis: Using”, “Prism). Table 1 provides the enzymatic inhibitory activities of the compounds of the present invention on CDK2/CyclinA2, CDK2/CyclinE1, CDK4/CyclinD1, CDK6/CyclinD1, CDK9/CyclinT1.” for “Prism).”

CDK6/CyclinD1 = biological target: T3, CDK6/CyclinD1 (Homo sapiens, UniProt Q00534); assay: CDK6/CyclinD1 kinase activity test (LANCE Ultra TR-FRET); assay type: biochemical; conditions: 250 μM ATP, 25° C., 120 minutes; read-out: Enzyme activity data (IC50) CDK6/cyclinD1
T3 construct: purchased Carna
Description: Experimental materials: CDK6/CyclinD1 kinase was purchased from Carna, reaction substrate LANCE Ultra ULight™-4E-BP-1 (Thr37146) Peptide and EU-ANTI-P-4EBP1 (THR37/46) were purchased from PerkinElmer. Nivo Multilabel Analyzer (PerkinElmer).
(§5) Experimental method: preparation of kinase buffer: The components of the buffer include: 50 mM of hydroxyethylpiperazine […] solution with pH 7.5, 1 mM of EDTA, 10 mM of magnesium chloride, 0.01% lauryl polyoxyethylene ether (Brij-35), 2 mM of enzyme dithiothreitol, kinase buffer dilution enzyme, substrate LANCE Ultra ULight™-4E-BP-1 (Thr37146) Peptide, adenosine triphosphate and inhibitor. […] The reaction system was continued at 25° C. for 120 minutes. After the reaction was complete, a mixture of 5 μL of EDTA and 2× LANCE™ Detection Buffer (1:1) was added to each well, and reacted at 25° C. for 5 minutes, after the reaction was complete, 5 μL of LANCE Ultra Eu-anti-P-4E-BP1(Thr37MS) (4 nM) was added to each well, and reacted at 25° C. for 60 minutes, the reaction signal was detected by Nivo instrument according to the principle of time-resolved fluorescence resonance energy transfer.
as §4

CDK4/CyclinD1 = biological target: T4, CDK4/CyclinD1 (Homo sapiens, UniProt P11802); assay: CDK4/CyclinD1 kinase activity test (LANCE Ultra TR-FRET); assay type: biochemical; conditions: 350 μM ATP, 25° C., 120 minutes; read-out: Enzyme activity data (IC50) CDK4/cyclinD1
T4 construct: purchased Invitrogen
Description: Experimental materials: CDK4/CyclinD1 kinase was purchased from Invitrogen, reaction substrate LANCE Ultra ULight™-4E-BP-1 (Thr37146) Peptide and EU-ANTI-P-4EBP1 (THR37/46) were purchased from PerkinElmer. Nivo Multilabel Analyzer (PerkinElmer).
as §5, §4

T3 sequence (Q00534 whole entry): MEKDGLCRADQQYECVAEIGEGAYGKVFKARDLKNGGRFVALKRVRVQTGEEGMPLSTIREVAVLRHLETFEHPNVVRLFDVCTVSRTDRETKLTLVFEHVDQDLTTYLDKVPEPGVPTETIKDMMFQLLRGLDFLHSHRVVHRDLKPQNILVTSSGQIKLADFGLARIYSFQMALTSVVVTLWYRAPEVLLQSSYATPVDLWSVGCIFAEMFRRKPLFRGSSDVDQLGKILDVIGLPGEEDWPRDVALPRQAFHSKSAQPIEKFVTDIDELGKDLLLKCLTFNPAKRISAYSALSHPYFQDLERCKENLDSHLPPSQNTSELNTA
T3 sequence (P24385 whole entry partner): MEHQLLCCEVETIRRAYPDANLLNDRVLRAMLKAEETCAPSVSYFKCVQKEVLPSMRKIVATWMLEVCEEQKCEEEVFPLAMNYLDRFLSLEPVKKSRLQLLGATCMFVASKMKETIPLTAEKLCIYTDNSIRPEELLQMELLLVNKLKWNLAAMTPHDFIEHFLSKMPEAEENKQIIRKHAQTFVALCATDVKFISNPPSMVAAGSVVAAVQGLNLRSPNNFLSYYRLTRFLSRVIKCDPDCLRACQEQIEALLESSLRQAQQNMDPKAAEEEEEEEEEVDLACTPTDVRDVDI
T4 sequence (P11802 whole entry): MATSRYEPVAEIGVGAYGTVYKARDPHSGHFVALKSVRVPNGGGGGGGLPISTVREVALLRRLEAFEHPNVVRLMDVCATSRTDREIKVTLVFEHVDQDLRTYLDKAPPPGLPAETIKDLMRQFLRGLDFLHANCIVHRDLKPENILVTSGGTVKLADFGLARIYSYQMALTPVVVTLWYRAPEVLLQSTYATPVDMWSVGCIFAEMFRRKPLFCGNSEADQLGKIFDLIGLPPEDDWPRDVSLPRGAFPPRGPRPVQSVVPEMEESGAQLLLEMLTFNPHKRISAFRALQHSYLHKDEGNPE
T4 sequence (P24385 whole entry partner): as the sequence (P24385 whole entry partner) above
T1 sequence (P50750 whole entry): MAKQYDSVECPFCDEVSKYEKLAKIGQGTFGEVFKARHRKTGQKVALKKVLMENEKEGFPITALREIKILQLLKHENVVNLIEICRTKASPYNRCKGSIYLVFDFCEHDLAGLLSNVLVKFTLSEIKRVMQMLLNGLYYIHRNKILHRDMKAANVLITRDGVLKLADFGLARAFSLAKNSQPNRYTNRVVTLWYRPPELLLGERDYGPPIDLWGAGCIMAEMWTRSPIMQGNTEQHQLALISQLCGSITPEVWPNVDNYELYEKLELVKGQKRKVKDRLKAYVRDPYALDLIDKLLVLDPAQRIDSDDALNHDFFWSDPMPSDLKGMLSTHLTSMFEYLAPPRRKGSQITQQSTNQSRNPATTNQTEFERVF
T1 sequence (O60563 whole entry partner): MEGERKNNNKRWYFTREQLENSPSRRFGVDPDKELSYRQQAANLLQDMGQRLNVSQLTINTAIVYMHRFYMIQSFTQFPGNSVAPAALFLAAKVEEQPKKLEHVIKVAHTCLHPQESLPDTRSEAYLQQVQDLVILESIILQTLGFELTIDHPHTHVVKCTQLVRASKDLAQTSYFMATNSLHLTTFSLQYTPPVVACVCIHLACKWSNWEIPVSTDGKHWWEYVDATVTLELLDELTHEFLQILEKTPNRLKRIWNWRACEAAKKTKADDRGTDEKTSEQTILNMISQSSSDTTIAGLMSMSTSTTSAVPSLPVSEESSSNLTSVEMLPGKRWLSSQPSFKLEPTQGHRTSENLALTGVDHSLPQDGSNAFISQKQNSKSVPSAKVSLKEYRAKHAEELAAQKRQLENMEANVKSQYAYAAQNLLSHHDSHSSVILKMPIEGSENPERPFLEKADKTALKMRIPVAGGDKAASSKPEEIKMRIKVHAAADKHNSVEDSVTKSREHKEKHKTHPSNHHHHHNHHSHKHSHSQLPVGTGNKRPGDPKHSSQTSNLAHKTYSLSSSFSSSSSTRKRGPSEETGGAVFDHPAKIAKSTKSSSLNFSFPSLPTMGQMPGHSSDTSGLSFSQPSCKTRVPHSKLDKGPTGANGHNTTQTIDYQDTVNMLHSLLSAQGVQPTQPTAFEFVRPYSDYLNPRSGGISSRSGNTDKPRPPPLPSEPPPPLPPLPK

Row | Compound | IC50 (MDA-MB-468 cells) [nM] | IC50 (HCT116 cells) [nM] | IC50 (CDK9/CyclinT1) [nM] | IC50 (HCC1806 cells) [nM] | IC50 (CDK2/CyclinA2) [nM] | IC50 (CDK6/CyclinD1) [nM] | IC50 (CDK4/CyclinD1) [nM]
1 | CC(C)S(=O)(=O)N1CCC(Nc2ncc3c(n2)N([C@@H]2CCC[C@@]2(C)O)C(=O)CC3)CC1 [Compound 5] | – | – | – | – | 1.74 | 8.95 | 46.9
2 | CN1CC(S(=O)(=O)N2CCC(Nc3ncc4c(n3)N([C@@H]3CCC[C@@]3(C)O)C(=O)CC4)CC2)C1 [Compound 10] | – | – | – | – | 1.52 | 2.65 | 9.09
3 | C[C@@]1(O)CCC[C@H]1N1C(=O)CCc2cnc(NC3CCN(S(=O)(=O)C4CC4)CC3)nc21 [Compound 3] | – | – | – | – | 1.18 | 4.74 | 23.6
4 | CCN1CC(S(=O)(=O)N2CCC(Nc3ncc4c(n3)N([C@@H]3CCC[C@@]3(C)O)C(=O)CC4)CC2)C1 [Compound 8] | – | – | – | – | 1.78 | 3.4 | 14.9
5 | C[C@@]1(O)CCC[C@H]1N1C(=O)CCc2cnc(NC3CCN(S(=O)(=O)C4CNC4)CC3)nc21 [Compound 7] | – | – | – | – | 1.4 | 1.52 | 3.99

Second part, the molecule after the results:

Row | IC50 (MDA-MB-468 cells) [nM] | IC50 (HCT116 cells) [nM] | IC50 (CDK9/CyclinT1) [nM] | IC50 (HCC1806 cells) [nM] | IC50 (CDK2/CyclinA2) [nM] | IC50 (CDK6/CyclinD1) [nM] | IC50 (CDK4/CyclinD1) [nM] | Compound
6 | 120 | 140 | 17.2 | 458 | – | – | – | C[C@@]1(O)CCC[C@H]1n1c(=O)c(C(F)F)cc2cnc(NC3CCN(S(C)(=O)=O)CC3)nc21 [PF-06873600, reference compound]
7 | – | – | – | – | 1.4 | 3.69 | 15.7 | CC(C)N1CC(S(=O)(=O)N2CCC(Nc3ncc4c(n3)N([C@@H]3CCC[C@@]3(C)O)C(=O)CC4)CC2)C1 [Compound 9]
8 | – | – | – | – | 1.32 | 5.42 | 37.5 | CCS(=O)(=O)N1CCC(Nc2ncc3c(n2)N([C@@H]2CCC[C@@]2(C)O)C(=O)CC3)CC1 [Compound 4]
9 | – | – | – | – | 1.13 | 5.26 | 38.1 | COCCS(=O)(=O)N1CCC(Nc2ncc3c(n2)N([C@@H]2CCC[C@@]2(C)O)C(=O)CC3)CC1 [Compound 6]
